Tests used:
[1] = logP by HPLC on reversed-phase column (EEC Directive 79/831 Annex V.A8); type: physicochemical; conditions: HPLC on reversed-phase column (C 18), 40° C., 0.1% aqueous formic acid and acetonitrile, linear gradient 10% to 90% acetonitrile
Protocol: In table 1, the logP values were determined in accordance with EEC Directive 79/831 Annex V.A8 by HPLC (High Performance Liquid Chromatography) on a reversed-phase column (C 18), using the method described below: Temperature: 40° C.; Mobile phases: 0.1% aqueous formic acid and acetonitrile; linear gradient from 10% acetonitrile to 90% acetonitrile. Calibration was carried out using unbranched alkan-2-ones (comprising 3 to 16 carbon atoms) with known logP values (determination of the logP values by the retention times using linear interpolation between two successive alkanones). lambda-max-values were determined using UV-spectra from 200 nm to 400 nm and the peak values of the chromatographic signals.

[2] = test system: Venturia inaequalis; experiment: In vivo preventive test on Venturia inaequalis (apple scab); conditions: 100 ppm of active ingredient, evaluated 10 days after inoculation
Protocol: After the spray coating has dried on, the plants are inoculated with an aqueous conidia suspension of the causal agent of apple scab (Venturia inaequalis) and then remain for 1 day in an incubation cabinet at approximately 20° C. and a relative atmospheric humidity of 100%.

[3] = test system: Pyrenophora teres; experiment: In vivo preventive test on Pyrenophora teres (barley); conditions: 500 ppm of active ingredient, evaluated 7-9 days after inoculation
Protocol: The plants remain for 48 hours in an incubation cabinet at 22° C. and a relative atmospheric humidity of 100%.

[4] = test system: Septoria tritici; experiment: In vivo preventive test on Septoria tritici (wheat); conditions: 500 ppm of active ingredient, evaluated 21 days after inoculation
Source text: After the spray coating has been dried, the plants are sprayed with a spore suspension of Septoria tritici.

[5] = test system: Fusarium nivale (var. majus); experiment: In vivo preventive test on Fusarium nivale (wheat); conditions: 500 ppm of active ingredient, evaluated 5 days after inoculation
Source text: After the spray coating has been dried, the plants are slightly injured by using a sandblast and afterwards they are sprayed with a conidia suspension of Fusarium nivale (var. majus).

[6] = test system: Pyricularia oryzae; type: in vivo; conditions: rice, protective, 250 ppm of active ingredient, evaluated 5 days after inoculation
[7] = test system: Cochliobolus miyabeanus; conditions: rice, protective, 250 ppm of active ingredient, evaluated 4 days after inoculation
Protocol: In Vivo Protective Test on Cochliobolus Miyabeanus (Rice)
Solvent: 28.5 parts by weight of acetone
Emulsifier: 1.5 part by weight of polyoxyethylene alkyl phenyl ether
One day after spraying, the plants are inoculated with an aqueous spore suspension of the causal agent of rice brown spot (Cochliobolus miyabeanus). The plants are then placed in an incubator at approximately 25° C. and a relative atmospheric humidity of approximately 100% for 1 day.
The test is evaluated 4 days after the inoculation.

[8] = test system: Rhizoctonia solani; experiment: In vivo protective test on Rhizoctonia solani (rice); conditions: 250 ppm of active ingredient, evaluated 4 days after inoculation
Source text: In Vivo Protective Test on Rhizoctonia Solani (Rice)

[9] = test system: Puccinia triticina; experiment: In vivo preventive test on Puccinia triticina (wheat); conditions: 500 ppm of active ingredient, evaluated 8 days after inoculation
Protocol: In Vivo Preventive Test on Puccinia Triticina (Wheat)
Solvent: 49 parts by weight of N,N-dimethylacetamide
Emulsifier: 1 part by weight of alkylaryl polyglycol ether
After the spray coating has been dried, the plants are sprayed with a spore suspension of Puccinia triticina.
The test is evaluated 8 days after the inoculation.

[10] = test system: Sphaerotheca fuliginea; experiment: In vivo preventive test on Sphaerotheca fuliginea (cucumber); conditions: 500 ppm of active ingredient, evaluated 7 days after inoculation
[11] = test system: Alternaria solani; experiment: In vivo preventive test on Alternaria solani (tomato); conditions: 500 ppm of active ingredient, evaluated 7 days after inoculation
Protocol: The plants remain for one day in an incubation cabinet at approximately 22° C. and a relative atmospheric humidity of 100%. Then the plants are placed in an incubation cabinet at approximately 20° C. and a relative atmospheric humidity of 96%.

[12] = test system: Blumeria graminis f.sp. hordei; experiment: In vivo preventive test on Blumeria graminis (barley); conditions: 500 ppm of active ingredient, evaluated 7 days after inoculation
Source text: After the spray coating has been dried, the plants are dusted with spores of Blumeria graminis f.sp. hordei.

[13] = test system: Leptosphaeria nodorum; experiment: In vivo preventive test on Leptosphaeria nodorum (wheat); conditions: 500 ppm of active ingredient, evaluated 8 days after inoculation
Source text: After the spray coating has been dried, the plants are sprayed with a spore suspension of Leptosphaeria nodorum.

[14] = test system: Phakopsora pachyrhizi; experiment: In vivo protective test on Phakopsora pachyrhizi (soybeans); conditions: 250 ppm of active ingredient, evaluated 11 days after inoculation
Protocol: In Vivo Protective Test on Phakopsora Pachyrhizi (Soybeans)
The test is evaluated 11 days after the inoculation.

Row | Compound | logP [1] | Efficacy [2] | Efficacy [3] | Efficacy [4] | Efficacy [5] | Efficacy [6] | Efficacy [7] | Efficacy [8] | Efficacy [9] | Efficacy [10] | Efficacy [11] | Efficacy [12] | Efficacy [13] | protection (efficacy) [14]
1 | Cc1cc(C)c(CC2CCCN2C(=O)c2c(C(F)F)nn(C)c2F)cc1C (racemic) [Example 66] | 3.81 | 100% | 100% | 90% | 100% | 97% | 98% | 80% | 100% | 88% | 100% | – | – | –
2 | Cn1nc(C(F)F)c(C(=O)N2CCCC2c2cccc(C(F)(F)F)c2)c1F (centres unmarked) [Example 17] | 3.06 | – | 100% | – | – | 92% | 98% | – | – | 95% | 100% | – | – | –
3 | CCC(c1ccccc1)C1CCCN1C(=O)c1c(C(F)F)nn(C)c1F (centres unmarked) [Example 53] | 3.48 | 100% | 100% | 100% | 100% | – | 95% | – | 88% | 93% | 94% | 100% | 100% | 85%
4 | Cn1nc(C(F)F)c(C(=O)N2CCC[C@H]2COc2c(Cl)cc(Cl)cc2Cl)c1F [Example 82] | 4.24 | – | – | 86% | 100% | 98% | 93% | 100% | 100% | 100% | – | 100% | – | –

From patent publication US8614242B2, “1-(heterocyclic carbonyl)-2-substituted pyrrolidines” (Bayer Intellectual Property GmbH, priority 2010, dated 2013)
